Source: patent US10781456B2, “Carbon-neutral and carbon-positive photorespiration bypass routes supporting higher photosynthetic rate and yield” (Max-Planck-Gesellschaft zur Förderung der Wissenschaften …, priority 2015, dated 2020)
Read-outs that look alike come from different tables or passages of the source. One block for each molecule: values may come before it.

Key:
[1] = molecular target: D-fructose 6-phosphate aldolase encoded by E. coli gene fsaA (UniProt P78055); conditions: cited from earlier work
[2] = molecular target: D-fructose 6-phosphate aldolase encoded by E. coli gene fsaB (UniProt P32669); conditions: cited from earlier work
[3] = molecular target: transaldolase TalB from E. coli (UniProt P0A870); conditions: cited from earlier work
[4] = molecular target: transaldolase Tal from B. subtilis (UniProt P19669); conditions: cited from earlier work
[5] = molecular target: transaldolase Tal from C. glutamicum (UniProt Q8NQ64); conditions: cited from earlier work
[6] = substrate: O=C(COP(=O)(O)O)[C@H](O)[C@H](O)CO; test: isomerisation of D-ribulose 1-phosphate to D-ribose 1-phosphate (reaction 29#), preliminary study; format: biochemical; conditions: other: preliminary study
glycolyl-CoA [7] = test: propionyl-CoA carboxylase ATP hydrolysis assay coupled to PK/LDH, NADH oxidation at 340 nm, product tartronyl-CoA confirmed by UPLC-hrMS (reaction 3#); format: biochemical
Method: The activity of the PCCMe_D407I_Y143H protein as well as the PCCMe protein was determined spectrophotometrically at 37° C. The ATP hydrolysis reaction of the respective enzyme was coupled to ATP regeneration by pyruvate kinase (PK) with phosphoenolpyruvate (PEP) and subsequent reduction to lactate by lactate dehydrogenase (LDH). The oxidation of NADH by LDH was followed spectrophotometrically at 340 nm. The reaction mixture (300 μL) contained 200 mM NH4HCO3 buffer, pH 7.7, 5 mM MgCl2, 1 mM ATP, 1 mM PEP, 4 U PK, 5.8 U LDH, 0.3 mM NADH and 48 μg of PCCMe_D407I_Y143H or PCCMe. The reaction was initiated by addition of 1 mM glycolyl-CoA. Samples for UPLC-hrMS were withdrawn and stopped by acidification (5% formic acid) after most of the NADH was consumed. Precipitated protein was removed by centrifugation at 4° C. and 17 000×g. The supernatants were analyzed by UPLC-hrMS as described above. […] As mentioned above, and shown in FIG. 10, the glycolyl-CoA carboxylation activity of the PCCMe_D407I_Y143H enzyme was confirmed by direct detection of the product tartronyl-CoA by UPLC-hrMS.
In a second assay, the reaction mixture was slightly modified for a ^13C labeling experiment. Here, the reaction mixture contained 50 mM NH4HCO3 buffer, pH 7.7 and 150 mM [^13C]NaHCO3, pH 7.7 (otherwise as above-mentioned). […]

glycolyl-CoA [8] = test: MCRCa coupled assay: glycolyl-CoA carboxylation by PCC coupled to two step reduction to glycerate by MCRCa (reactions 3#, 4#, 5), HPLC-hrMS and NADPH absorption; format: biochemical
Method: In addition to the above mentioned assays also another assay was performed in which the formation of tartronyl-CoA from glycolyl-CoA (reaction 3#) by the PCCMe_D407I_Y143H enzyme was directly coupled to its subsequent two step reduction via tartronate-semialdehyde (reaction 4#) to glycerate (reaction 5) by use of the purified MCRCa (Kröger et al., 2011, loc. cit.). The reaction mixture (300 μL) contained 200 mM NH4HCO3 buffer, pH 7.7, 5 mM MgCl2, 1 mM ATP, 0.4 mM NADPH, 43 μg PCCMe_D407I_Y143H, and 184 μg of MCRCa.
To determine whether MCRCa was able to catalyze the two step reduction of tartonyl-CoA to glycerate (via tartronic semialdehyde), samples of the reaction mixture were withdrawn after all of the NADPH was consumed. The samples were stopped with formic acid (5% final concentration). The acidified samples were centrifuged at 4° C. and 17 000×g and the supernatants were analyzed by HPLC-hrMS.
The formation of glycerate was analyzed using an Agilent 6550 iFunnel Q-TOF LC-MS system equipped with an electrospray ionization source set to negative ionization mode. […]
LC-MS data were analyzed using MassHunter Qualitative Analysis software (Agilent). […] In such assays the tartronate semialdehyde can be covalently derivatized with phenylhydrazine to a phenylhydrazone, which can be detected by its absorbance at 324 nm and confirmed by its corresponding mass spectrum. […]

[9] = substrate: O=C(O)CO; test: purified protein, by the assay type; conditions: other: 37° C., pH 7.5, 2 mM acetyl-CoA, 10-800 mM glycolate, n=3
[10] = as an acceptor, read-out: KM for glycolaldehyde as an acceptor
[11] = bound stated for both fsaA and fsaB enzymes, read-out: KM (condensation of glycolaldehyde as donor with D-glyceraldehyde 3-phosphate as acceptor)
[12] = D-fructose 6-phosphate and glycolaldehyde, range over the three transaldolases
[13] = transaldolase reaction with D-fructose 6-phosphate, read-out: KM towards glycolaldehyde

Molecule: O=CCO [glycolaldehyde]
Km [1, 10]: > 60 mM
Km [1, 11]: < 1 mM
Km ([1]; read-out: KM for glycolaldehyde): ~0.2 mM
Km [2, 10]: > 60 mM
Km [2, 11]: < 1 mM
vmax [3, 12]: 1.6 to 8.8 µmol/min/mg
Km [3, 13]: > 60 mM
vmax [4, 12]: 1.6 to 8.8 µmol/min/mg
Km [4, 13]: > 60 mM
vmax [5, 12]: 1.6 to 8.8 µmol/min/mg
Km [5, 13]: > 60 mM

B1: 5-methylthio-D-ribulose 1-phosphate 1,2-isomerase Rru_A0360 (Rhodospirillum rubrum ATCC 11170) (protein)
chain: MNVKGTPTRTIWPAREGGAVWIIDQTRLPHEFVTQRLNDLGAVAHAIRAMLVRGAPLIGATAAYGVALGMAEDPSDEGLTRACQTLLATRPTAVNLRWAIEAMAESLAAVPPDQRAQAAWAKAGAICDEDVALNEAIGDHGLGIIKDLARTKGVEKGGEGPINILTHCNAGWLATVDWGTALAPLYKAHDAGLPIHVWVDETRPRNQGASLTAWELNSHGVPHTVIADNTGGHLMQHGLVDMVIVGTDRTTATGDVCNKIGTYLKALAAFDNAVPFYVALPGPTIDWTVNDGLREIPIEQRDAAEVTRVWGRTAAGALEWVTITPTGSPAANYAFDVTPARLITGLITERGVCAASAAGLAGLYPERAPAPVPAGSAAGKGAAATADGAL
notes: preliminary kinetics, preparation not described
kcat [6]: 0.03 s⁻¹

glycolyl-CoA-dependent ATP hydrolysis rate (glycolyl-CoA [7]; 1 mM glycolyl-CoA, 37° C.): 0.4 U mg^−1
B2: PCCMe: propionyl-CoA carboxylase of Methylobacterium extorquens, subunits pccA (SEQ ID NO: 2) and pccB (SEQ ID NO: 4) (protein, listed as Methylobacterium extorquens)
alpha: MFDKILIANRGEIACRIIKTAQKMGIKTVAVYSDADRDAVHVAMADEAVHIGPAPAAQSYLLIEKIIDACKQTGAQAVHPGYGFLSERESFPKALAEAGIVFIGPNPGAIAAMGDKIESKKAAAAAEVSTVPGFLGVIESPEHAVTIADEIGYPVMIKASAGGGGKGMRIAESADEVAEGFARAKSEASSSFGDDRVFVEKFITDPRHIEIQVIGDKHGNVIYLGERECSIQRRNQKVIEEAPSPLLDEETRRKMGEQAVALAKAVNYDSAGTVEFVAGQDKSFYFLEMNTRLQVEHPVTEMITGLDLVELMIRVAAGEKLPLSQDQVKLDGWAVESRVYAEDPTRNFLPSIGRLTTYQPPEEGPLGGAIVRNDTGVEEGGEIAIHYDPMIAKLVTWAPTRLEAIEAQATALDAFAIEGIRHNIPFLATLMAHPRWRDGRLSTGFIKEEFPEGFIAPEPEGPVAHRLAAVAAAIDHKLNIRKRGISGQMRDPSLLTFQRERVVVLSGQRFNVTVDPDGDDLLVTFDDGTTAPVRSAWRPGAPVWSGTVGDQSVAIQVRPLLNGVFLQHAGAAAEARVFTRREAELADLMPVKENAGSGKQLLCPMPGLVKQIMVSEGQEVKNGEPLAIVEAMKMENVLRAERDGTISKIAAKEGDSLAVDAVILEFA
beta: MKDILEKLEERRAQARLGGGEKRLEAQHKRGKLTARERIELLLDHGSFEEFDMFVQHRSTDFGMEKQKIPGDGVVTGWGTVNGRTVFLFSKDFTVFGGSLSEAHAAKIVKVQDMALKMRAPIIGIFDAGGARIQEGVAALGGYGEVFRRNVAASGVIPQISVIMGPCAGGDVYSPAMTDFIFMVRDTSYMFVTGPDVVKTVTNEVVTAEELGGAKVHTSKSSIADGSFENDVEAILQIRRLLDFLPANNIEGVPEIESFDDVNRLDKSLDTLIPDNPNKPYDMGELIRRVVDEGDFFEIQAAYARNIITGFGRVEGRTVGFVANQPLVLAGVLDSDASRKAARFVRFCNAFSIPIVTFVDVPGFLPGTAQEYGGLIKHGAKLLFAYSQATVPLVTIITRKAFGGAYDVMASKHVGADLNYAWPTAQIAVMGAKGAVEIIFRAEIGDADKIAERTKEYEDRFLSPFVAAERGYIDEVIMPHSTRKRIARALGMLRTKEMEQPWKKHDNIPL
modifications: [CDS]1..2004 from SEQ ID NO 1; [CDS]1..1533 from SEQ ID NO 3
glycolyl-CoA carboxylation activity (tartronyl-CoA by UPLC-hrMS) (glycolyl-CoA [7]): exhibited a glycolyl-CoA carboxylation activity, although the activity was lower
activity with glycolyl-CoA in the MCRCa coupled assay (glycolyl-CoA [8]): no activity could be measured

B3: propionyl-CoA transferase from Ralstonia eutropha (PCTRe), wild type, SEQ ID NO: 12 (Cupriavidus necator H16) (protein)
chain: MKVITAREAAALVQDGWTVASAGFVGAGHAEAVTEALEQRFLQSGLPRDLTLVYSAGQGDRGARGVNHFGNAGMTASIVGGHWRSATRLATLAMAEQCEGYNLPQGVLTHLYRAIAGGKPGVMTKIGLHTFVDPRTAQDARYHGGAVNERARQAIAEGKACWVDAVDFRGDEYLFYPSFPIHCALIRCTAADARGNLSTHREAFHHELLAMAQAAHNSGGIVIAQVESLVDHHEILQAIHVPGILVDYVVVCDNPANHQMTFAESYNPAYVTPWQGEAAVAEAEAAPVAAGPLDARTIVQRRAVMELARRAPRVVNLGVGMPAAVGMLAHQAGLDGFTLTVEAGPIGGTPADGLSFGASAYPEAVVDQPAQFDFYEGGGIDLAILGLAELDGHGNVNVSKFGEGEGASIAGVGGFINITQSARAVVFMGTLTAGGLEVRAGDGGLQIVREGRVKKIVPEVSHLSFNGPYVASLGIPVLYITERAVFEMRAGADGEARLTLVEIAPGVDLQRDVLDQCSTPIAVAQDLREMDARLFQAGPLHL
Km [9]: 51.7 ± 9.6 mM (glycolate) mM
